Data from US7531195B2, “Schisandrin B preparation” (priority 2005, dated 2009).

Legend:
[1] = test system: H9c2 cells; assay: Cellular GSH level in H9c2 cells, time course, with or without xanthine/xanthine oxidase (X/XO) challenge; assay type: cell-based, rat; conditions: 6.25 μM
Method: H9c2 cells, a permanent cell line derived from cardiac myoblasts of rat embryo, have early been characterized as a suitable model of myocardial cells [Hescheler et al. 1991]. H9c2 cells were cultured as monolayers in Dulbecco's modified Eagle's medium (GIBCO BRL) supplemented with 10% (v/v) fetal bovine serum. The medium contained glucose (4.5 g/L) and glutamine (4.5 mM), supplemented with NaHCO3 (17 mM), penicillin (100 IU/ml), and streptomycin (100 μg/ml). Cells were grown under an atmosphere of 5% CO2 in air at 37° C. The medium was replaced by fresh medium every 2 or 3 days. A stock of cells was grown in a 75 cm culture flask and split before confluence at a subcultivation ratio of 1:10. Cells used for experiments were seeded at a density of 3.75×10^4 cells/well on a 12-well culture plate, and the cells were grown for 24 h to about 80% confluence prior to drug treatment.
Cultured H9c2 cells were treated with (−) Schisandrin B, (+) Schisandrin B or (±) Schisandrin B (dissolved in DMSO) at 6.25 μM (0.2% DMSO final concentration) for increasing periods of time. Control cells were given the vehicle (i.e. DMSO) only. Immediately following the drug or vehicle pretreatment, the cells were challenged with a mixture of xanthine (X) (0.1 mM) and xanthine oxidase (XO) (0.4 U/ml) for 4 h. The control cells were treated with the medium only. After the X/XO challenge, the medium was taken for the measurement of LDH activity, a biochemical index of cellular injury.
The cells were washed twice with 0.5 ml cold phosphate-buffered saline (PBS), An aliquot (200 μl) of 3% sulfonsalicyclic acid was then added, and the mixture was incubate at 4° C. for 10 min. After centrifuging at 300 g for 15 min at 4° C., the supernatant was used for GSH measurement by an enzymatic method of Griffith (1980).

[2] = test system: isolated heart; assay: Myocardial I-R injury (LDH leakage) in young adult and middle-aged rats; assay type: in vivo, rat; conditions: 10 mg/kg/day x 35
Method: Young adult (8-10 week-old) and middle-aged (12-14 month-old retired breeder) female Sprague-Dawley rats were maintained under a 12-h dark/light cycle at about 22° C. and allowed food and water ad libitum. Experimental protocols were approved by the Research Practice Committee at the Hong Kong University of Science & Technology, Hong Kong. Animals were randomly divided into groups, with 5 animals in each. In the treatment groups, rats were intragastrically administered with Sch B (dissolved/suspended in olive oil) at a daily dose of 10 mg/kg for 15 days. The daily dose is approximated to 1.14 mg/kg for humans after adjusting the inter-species difference in drug distribution in the body. Untreated control animals received olive oil only. Twenty-four hours after the last dosing, animals were sacrificed by decapitation and the whole brain, heart ventricular, liver and skeletal muscle (hind limb) tissues were excised and subjected to biochemical analysis. To investigate the effect of (−) Sch B on myocardial ischemia-reperfusion […] injury, rats were intragastrically administered with (−) Sch B at a daily dose of 10 mg/kg for 35 days. Untreated control animals received olive oil only. Twenty-four hours after the last dosing, hearts were isolated from pentobarbital-anesthetized animals and subjected to I-R experiment. […]

[3] = X/XO challenge, 16 h post-dosing

In the case of COc1cc2c(c(OC)c1OC)-c1c(cc3c(c1OC)OCO3)CC(C)C(C)C2 (single isomer, unassigned; (-)) [(−) Sch B, (−) Schisandrin B], the “stimulatory effect on cellular GSH” value ([1]; 48 h post-dosing) is reported as “no detectable stimulatory effect”, the “time of maximum stimulation of cellular GSH” value ([1]; post-dosing) is reported as 16 h and the “GSH Level” value ([1]; NON-X/XO, 0 h post-dosing (unpretreated control)) is reported as 35.8 ± 1.04 nmol/mg protein. The “GSH Level” value ([1]; NON-X/XO, 4 h post-dosing) was 46.8 ± 0.88 nmol/mg protein, the “GSH Level” value ([1]; NON-X/XO, 8 h post-dosing) was 54.2 ± 1.42 nmol/mg protein and the “GSH Level” value ([1]; NON-X/XO, 16 h post-dosing) was 92.6 ± 1.29 nmol/mg protein. The “GSH Level, percent increase vs unpretreated control (0 h)” value ([1]; NON-X/XO, 16 h post-dosing) was “(158%)”, the “GSH Level” value ([1]; NON-X/XO, 24 h post-dosing) was 79.0 ± 1.48 nmol/mg protein and the “GSH Level” value ([1]; NON-X/XO, 48 h post-dosing) was 54.7 ± 3.58 nmol/mg protein. The “GSH Level” value ([1]; X/XO challenge, 0 h post-dosing (unpretreated control)) was 15.9 ± 0.45 nmol/mg protein, the “GSH Level” value ([1]; X/XO challenge, 4 h post-dosing) was 18.3 ± 0.57 nmol/mg protein and the “GSH Level” value ([1]; X/XO challenge, 8 h post-dosing) was 20.7 ± 0.61 nmol/mg protein. The “GSH Level” value [1, 3] was 25.1 ± 1.50 nmol/mg protein, the “GSH Level, percent increase vs unpretreated control (0 h)” value [1, 3] was “(57%)” and the “GSH Level” value ([1]; X/XO challenge, 24 h post-dosing) was 17.8 ± 0.59 nmol/mg protein. For the same compound, the “GSH Level” value ([1]; X/XO challenge, 48 h post-dosing) was 16.7 ± 0.63 nmol/mg protein, the “degree of protection against myocardial I-R injury” value ([2]; middle-aged rats) was 36% and the “degree of protection against myocardial I-R injury” value ([2]; young adult rats) was 55%.
